# According to ChEMBL document CHEMBL5120961, “N-Arylimidazoliums as Highly Selective Biomimetic Antimicrobial Agents” (J Med Chem, 2022):
# The source made the active and inactive calls. No cut-off for these calls is given here.
# Assays:
# [1] = test system: Staphylococcus aureus; assay: Antibacterial activity against methicillin-resistant Staphylococcus aureus ATCC 43300 assessed as inhibition of bacterial growth incubated for 16 to 18 hrs by broth microdilution method; type: functional; conditions: time 16-18 hrs
# [2] = test system: Staphylococcus aureus; assay: Antibacterial activity against Staphylococcus aureus ATCC 25923 assessed as inhibition of bacterial growth incubated for 16 to 18 hrs by broth microdilution method; type: functional; conditions: time 16-18 hrs
# [3] = test system: Escherichia coli; assay: Antibacterial activity against Escherichia coli ATCC 25922 assessed as inhibition of bacterial growth incubated for 16 to 18 hrs by broth microdilution method; type: functional; conditions: time 16-18 hrs
# [4] = test system: Erythrocyte; assay: Hemolytic activity in rabbit erythrocytes incubated for 1 hr; type: toxicity, cell-based, Oryctolagus cuniculus
# [5] = Selectivity ratio of HC5 for hemolytic activity in rabbit erythrocytes to MIC for antibacterial activity against methicillin-resistant Staphylococcus aureus ATCC 43300; type: toxicity, cell-based
# [6] = test system: Enterococcus faecalis; assay: Antibacterial activity against Enterococcus faecalis ATCC 29212 assessed as inhibition of bacterial growth incubated for 16 to 18 hrs by broth microdilution method; type: functional; conditions: time 16-18 hrs
# [7] = test system: Acinetobacter baumannii; assay: Antibacterial activity against Acinetobacter baumannii ATCC 19606 assessed as inhibition of bacterial growth incubated for 16 to 18 hrs by broth microdilution method; type: functional; conditions: time 16-18 hrs
# [8] = test system: Pseudomonas aeruginosa; assay: Antibacterial activity against Pseudomonas aeruginosa ATCC 27853 assessed as inhibition of bacterial growth incubated for 16 to 18 hrs by broth microdilution method; type: functional; conditions: time 16-18 hrs
# [9] = test system: Klebsiella pneumoniae; assay: Antibacterial activity against Klebsiella pneumoniae CMCC(B) 46117 assessed as inhibition of bacterial growth incubated for 16 to 18 hrs by broth microdilution method; type: functional; conditions: time 16-18 hrs
# [10] = test system: Staphylococcus aureus; assay: Bactericidal activity against Staphylococcus aureus ATCC 25923 assessed as eradication of bacterial colonies at 4XMIC measured after 15 mins by time-kill kinetics analysis; type: functional, organism-based
# [11] = test system: Escherichia coli; assay: Bactericidal activity against Escherichia coli ATCC 25922 assessed as eradication of bacterial colonies at 16XMIC measured after 30 mins time-kill kinetics analysis; type: functional, organism-based
# [12] = Increase in intracellular ROS level in Staphylococcus aureus ATCC 25923 at 4XMIC measured after 10 mins by DCFH-DA staining based fluorescence analysis relative to control; type: functional
# [13] = Increase in intracellular ROS level in Escherichia coli ATCC 25922 at 4XMIC measured after 10 mins by DCFH-DA staining based fluorescence analysis relative to control; type: functional
# [14] = test system: Staphylococcus aureus; assay: Antibacterial activity against Staphylococcus aureus ATCC 25923 assessed as inhibition of bacterial growth incubated for 16 to 18 hrs in presence of ROS scavenger, NAC by broth microdilution method; type: functional; conditions: time 16-18 hrs
# [15] = test system: Escherichia coli; assay: Antibacterial activity against Escherichia coli ATCC 25922 assessed as inhibition of bacterial growth incubated for 16 to 18 hrs in presence of ROS scavenger, NAC by broth microdilution method; type: functional; conditions: time 16-18 hrs
# [16] = test system: Staphylococcus aureus; assay: Antibacterial activity against methicillin-resistant Staphylococcus aureus ATCC 43300 assessed as inhibition of bacterial growth measured after 10 passages by broth microdilution method; type: functional, organism-based
# [17] = test system: Staphylococcus aureus; assay: Inhibition of biofilm formation in methicillin-resistant Staphylococcus aureus ATCC 43300 incubated for 24 hrs under stationary conditions by crystal violet staining based analysis; type: functional, organism-based
# [18] = test system: Staphylococcus aureus; assay: Inhibition of biofilm formation in methicillin-resistant Staphylococcus aureus ATCC 43300 at MIC incubated for 24 hrs under stationary conditions by crystal violet staining based analysis; type: functional
# [19] = test system: Staphylococcus aureus; assay: Disruption of established biofilm in methicillin-resistant Staphylococcus aureus ATCC 43300 assessed as reduction of relative biofilm mass incubated for 24 hrs by crystal violet staining based analysis; type: functional, organism-based; conditions: DDE = dose-dependent effect
# [20] = test system: Staphylococcus aureus; assay: Disruption of established biofilm in methicillin-resistant Staphylococcus aureus ATCC 43300 assessed as reduction of relative biofilm mass at 64XMIC incubated for 24 hrs by crystal violet staining based analysis; type: functional
# [21] = Cytotoxicity against human HEK293 cells assessed as reduction of cell viability incubated for 48 hrs by MTT assay; type: toxicity, cell-based
# [22] = Half-life in Sprague-Dawley rat at 8 mg/kg, iv by LC-MS analysis; type: ADME, organism-based; conditions: in vivo
# [23] = AUC (0 to infinity) in Sprague-Dawley rat at 8 mg/kg, iv by LC-MS analysis; type: ADME, organism-based; design: time infinity, dose 8 mg/kg, route iv; conditions: in vivo
# [24] = Acute toxicity in BALB/c mouse assessed as lethargy at >12 mg/kg, iv; type: organism-based; conditions: in vivo
# [25] = Acute toxicity in BALB/c mouse assessed as clonic convulsion at >12 mg/kg, iv; type: organism-based; conditions: in vivo
# [26] = Acute toxicity in BALB/c mouse assessed as anorexia at >12 mg/kg, iv; type: organism-based; conditions: in vivo
# [27] = Acute toxicity in BALB/c mouse assessed as ruffled fur at >12 mg/kg, iv; type: organism-based; conditions: in vivo
# [28] = Acute toxicity in BALB/c mouse assessed as animal's death at >12 mg/kg, iv; type: organism-based; conditions: in vivo
# [29] = Subacute toxicity in BALB/c mouse assessed as animal's death at 4 to 8 mg/kg, iv administered everyday for 7 days; type: organism-based; conditions: in vivo, 168 h, dose 4-8 mg/kg, time 7 day
# [30] = Subacute toxicity in BALB/c mouse assessed as animals abnormal behaviour at 4 to 8 mg/kg, iv administered everyday for 7 days; type: organism-based; conditions: in vivo, 168 h, dose 4-8 mg/kg, time 7 day
# [31] = Subacute toxicity in BALB/c mouse assessed as histopathological changes of heart at 4 to 8 mg/kg, iv administered for 7 days and measured on day 14 by hematoxyin-eosin staining based analysis; type: organism-based; conditions: in vivo, 336 h, dose 4-8 mg/kg, time 14 day
# [32] = Subacute toxicity in BALB/c mouse assessed as histopathological changes of liver at 4 to 8 mg/kg, iv administered for 7 days and measured on day 14 by hematoxyin-eosin staining based analysis; type: organism-based; conditions: in vivo, 336 h, dose 4-8 mg/kg, time 14 day
# [33] = Subacute toxicity in BALB/c mouse assessed as histopathological changes of spleen at 4 to 8 mg/kg, iv administered for 7 days and measured on day 14 by hematoxyin-eosin staining based analysis; type: organism-based; conditions: in vivo, 336 h, dose 4-8 mg/kg, time 14 day
# [34] = Subacute toxicity in BALB/c mouse assessed as histopathological changes of lungs at 4 to 8 mg/kg, iv administered for 7 days and measured on day 14 by hematoxyin-eosin staining based analysis; type: organism-based; conditions: in vivo, 336 h, dose 4-8 mg/kg, time 14 day
# [35] = Subacute toxicity in BALB/c mouse assessed as histopathological changes of kidney at 4 to 8 mg/kg, iv administered for 7 days and measured on day 14 by hematoxyin-eosin staining based analysis; type: organism-based; conditions: in vivo, 336 h, dose 4-8 mg/kg, time 14 day
# [36] = Tmax in Sprague-Dawley rat at 8 mg/kg, iv by LC-MS analysis; type: ADME, organism-based; conditions: in vivo
# [37] = MRT (0 to infinity) in Sprague-Dawley rat at 8 mg/kg, iv by LC-MS analysis; type: ADME, organism-based; conditions: in vivo
# [38] = Cmax in Sprague-Dawley rat at 8 mg/kg, iv by LC-MS analysis; type: ADME, organism-based; design: dose 8 mg/kg, route iv; conditions: in vivo
# [39] = Mean clearance rate, Clz in Sprague-Dawley rat at 8 mg/kg, iv by LC-MS analysis; type: ADME, organism-based; conditions: in vivo
# [40] = test system: Staphylococcus aureus; assay: Antibacterial activity against methicillin-resistant Staphylococcus aureus ATCC 43300 infected in BALB/c mouse assessed as increase in animal's survival rate at 4 mg/kg, iv administered at 1, 6, 25 and 30 hrs post-infection and measured for 7 day post-infection; type: functional, organism-based
# [41] = test system: Staphylococcus aureus; assay: Antibacterial activity against methicillin-resistant Staphylococcus aureus ATCC 43300 infected in BALB/c mouse assessed as reduction in bacterial burden in lungs at 4 mg/kg, iv administered at 1, 6, 25 and 30 hrs post-infection and measured on day 7 post-infection by colony forming unit assay; type: functional, organism-based; conditions: time 7.0 day
# [42] = test system: Staphylococcus aureus; assay: Antibacterial activity against methicillin-resistant Staphylococcus aureus ATCC 43300 infected in BALB/c mouse assessed as reduction in TNF-alpha content in lungs at 4 mg/kg, iv administered at 1, 6, 25 and 30 hrs post-infection and measured on day 7 post-infection by ELISA; type: functional, organism-based; conditions: time 7.0 day
# [43] = test system: Staphylococcus aureus; assay: Antibacterial activity against methicillin-resistant Staphylococcus aureus ATCC 43300 infected in BALB/c mouse assessed as increase in IL-10 content in lungs at 4 mg/kg, iv administered at 1, 6, 25 and 30 hrs post-infection and measured on day 7 post-infection by ELISA; type: functional, organism-based; conditions: time 7.0 day
# [44] = test system: Staphylococcus aureus; assay: Antibacterial activity against methicillin-resistant Staphylococcus aureus ATCC 43300 infected in BALB/c mouse assessed as reduction in MPO content in lungs at 4 mg/kg, iv administered at 1, 6, 25 and 30 hrs post-infection and measured on day 7 post-infection by ELISA; type: functional, organism-based; conditions: time 7.0 day
# [45] = test system: Staphylococcus aureus; assay: (§1) Antibacterial activity against methicillin-resistant Staphylococcus aureus ATCC 43300 infected in BALB/c mouse assessed as reduction of NF-kappaB p65 expression in lungs at 4 mg/kg, iv administered at 1, 6, 25 and 30 hrs post-infection and measured on day 7 post-infection by western blot analysis; type: functional, organism-based; conditions: time 7.0 day
# [46] = test system: Staphylococcus aureus; assay: as §1, with “histopathological changes of pulmonary tissue” for “NF-kappaB p65 expression in lungs”, “hematoxylin-eosin staining based” for “western blot”; type: functional, organism-based; conditions: time 7.0 day
smiles,measurement,setting,value
CCCCCC[n+]1ccn(-c2ccc(C#Cc3ccc(-n4cc[n+](CCCCCC)c4)cc3)cc2)c1.[Br-].[Br-],MIC,[1],0.5 µg/mL
same,MIC,[2],0.25 µg/mL
same,MIC,[3],1 µg/mL
same,HC5,[4],800 µg/mL
same,selectivity ratio,[5],1600
same,MIC,[6],8 µg/mL
same,MIC,[7],32 µg/mL
same,MIC,[8],32 µg/mL
same,MIC,[9],32 µg/mL
same,Activity,[10],Active
same,Activity,[11],Active
same,fold change (FC),[12],2
same,fold change (FC),[13],20
same,MIC,[14],64 µg/mL
same,MIC,[15],32 µg/mL
same,Activity,[16],Active
same,inhibition,[17],Active
same,inhibition (INH),[18],100%
same,Activity,[19],Dde
same,inhibition (INH),[20],69%
same,CC50 at 48 h,[21],224 µg/mL
same,half-life,[22],51.4 min
same,AUC(0-inf),[23],5120 ng·h/mL
same,Activity,[24],Non-Toxic
same,Activity,[25],Non-Toxic
same,Activity,[26],Non-Toxic
same,Activity,[27],Non-Toxic
same,Activity,[28],Non-Toxic
same,Activity,[29],Non-Toxic
same,Activity,[30],Non-Toxic
same,Activity,[31],Non-Toxic
same,Activity,[32],Non-Toxic
same,Activity,[33],Non-Toxic
same,Activity,[34],Non-Toxic
same,Activity,[35],Non-Toxic
same,Tmax,[36],4.98 min
same,MRT inf,[37],32.5 min
same,Cmax,[38],12000 ng/mL
same,clearance,[39],27.2 mL/min/kg
same,Activity,[40],Active
same,Activity,[41],Active
same,Activity,[42],Active
same,Activity,[43],Active
same,Activity,[44],Active
same,Activity,[45],Active
same,Activity,[46],Active
CCCCCC[n+]1ccn(-c2ccc(CCc3ccc(-n4cc[n+](CCCCCC)c4)cc3)cc2)c1.[Br-].[Br-],MIC,[1],1 µg/mL
same,MIC,[2],0.5 µg/mL
same,MIC,[3],4 µg/mL
same,HC5,[4],1000 µg/mL
same,selectivity ratio,[5],1000
C(#Cc1ccc(-n2ccnc2)cc1)c1ccc(-n2ccnc2)cc1,MIC,[1],> 500 µg/mL
same,MIC,[2],> 500 µg/mL
same,MIC,[3],> 500 µg/mL
CCCCCC[n+]1ccn(CCCCn2cc[n+](CCCCCC)c2)c1.[Br-].[Br-],MIC,[1],500 µg/mL
same,MIC,[2],125 µg/mL
same,MIC,[3],125 µg/mL
same,HC5,[4],8000 µg/mL
same,selectivity ratio,[5],16
CC[n+]1ccn(-c2ccc(C#Cc3ccc(-n4cc[n+](CC)c4)cc3)cc2)c1.[Br-].[Br-],MIC,[1],64 µg/mL
same,MIC,[2],64 µg/mL
same,MIC,[3],8 µg/mL
same,HC5,[4],8000 µg/mL
same,selectivity ratio,[5],125
CCn1cc(C(=O)O)c(=O)c2cc(F)c(N3CCNCC3)cc21 [NORFLOXACIN],MIC,[1],1 µg/mL
same,MIC,[2],1 µg/mL
